Measured values reported in ChEMBL document CHEMBL6103605, “Discovery of First-in-Class BAZ2A/B and BAZ2B-Selective Degraders” (ACS Med Chem Lett, 2025).
pEC50, pKd: −log10 of the molar value.

Key:
[1] = target: Bromodomain adjacent to zinc finger domain protein 2B (Homo sapiens, UniProt Q9UIF8)
Description: Binding affinity to BAZ2B bromodomain (unknown origin) assessed as dissociation constant by BROMOscan technology

[2] = target: Bromodomain adjacent to zinc finger domain protein 2A (Homo sapiens, UniProt Q9UIF9)
Description: Binding affinity to BAZ2A bromodomain (unknown origin) assessed as dissociation constant by BROMOscan technology

[3] = target: von Hippel-Lindau disease tumor suppressor/Bromodomain adjacent to zinc finger domain protein 2B (Homo sapiens, UniProt Q9UIF8+P40337); test: PROTAC activity at BAZ2B/VHL in human PC-3 cells assessed as degradation after 4 hrs by Western blot analysis
[4] = target: von Hippel-Lindau disease tumor suppressor/Bromodomain adjacent to zinc finger domain protein 2A (Homo sapiens, UniProt Q9UIF9+P40337); test: PROTAC activity at BAZ2A/VHL in human PC-3 cells assessed as degradation after 4 hrs by Western blot analysis
[5] = target: von Hippel-Lindau disease tumor suppressor/Bromodomain adjacent to zinc finger domain protein 2A (Homo sapiens, UniProt P40337+Q9UIF9); test: PROTAC activity at BAZ2A/VHL in human PC-3 cells assessed as BAZ2A degradation after 4 hrs by Western blot analysis
[6] = Induction of BAZ2A level in human PC-3 cells measured after 4 hrs by Western blot analysis; details: PC-3, 4 h

Row | pKd [1] | pKd [2] | DC50 [3] | DC50 [4] | pEC50 [5] | pEC50 [6] | Structure (SMILES)
1 | 8.00 | – | – | – | – | – | COCc1nc(-c2cnn(C)c2)c(-c2ccc(C#N)cc2)n1CCc1cnn(C)c1
2 | 7.80 | 8.32 | 250 nM | 180 nM | – | – | Cc1ncsc1-c1ccc(CNC(=O)[C@@H]2C[C@@H](O)CN2C(=O)[C@@H](NC(=O)C2(F)CC2)C(C)(C)SC[C@H]2CC[C@H](COCc3nc(-c4cnn(C)c4)c(-c4ccc(C#N)cc4)n3CCc3cnn(C)c3)CC2)cc1
3 | 8.04 | – | – | – | – | – | Cn1cc(CCn2c(CO)nc(-c3cnn(C)c3)c2-c2ccc(C#N)cc2)cn1
4 | 7.29 | 8.33 | 19 nM | – | 7.46 | 7.46 | Cc1ncsc1-c1ccc(CNC(=O)[C@@H]2C[C@@H](O)CN2C(=O)[C@@H](NC(=O)C2(F)CC2)C(C)(C)C)c(OC[C@H]2CC[C@H](COCc3nc(-c4cnn(C)c4)c(-c4ccc(C#N)cc4)n3CCc3cnn(C)c3)CC2)c1
